26 compounds from US20090175995A1, “CONTROL OF FLAVOR CHARACTERISTICS OF AND INDICATOR OF FRESHNESS IN FRUIT JUICE” (TROPICANA PRODUCTS, INC., priority 2007, published 2009) can be followed below.

Read-outs that look alike come from different tables or passages of the source. Where only a bound is given, the exact number is not on record here.

The test system of series [1] is Astringency Taste. Nature of the series: Astringency taste threshold, sensory. Format: in vivo, human. An excerpt: The inventors have discovered that, as with bitterness, a plurality of compounds present in orange juice below the astringency threshold contributes to the astringent mouth feel of the juice.
(§1) To make these evaluations, eleven assessors (four women and seven men, age 23-39 years), who participated for at least two years in weekly training sessions, determined taste recognition threshold concentrations in bottled water (pH 5.1) by means of a three-alternative forced-choice method with ascending concentrations of the stimulus following the procedure reported previously in Stark, T.; Barenther, S.; Hofmann, T. (2005) J. Agric. Food Chem. 53:5407-5418.

The test system of series [2] is Bitter Taste. Nature of the series: Bitter taste recognition threshold, trained sensory panel. It counts as in vivo, human. The method, then: To study the influence of the chirality of C(17) on the sensory activity of these limonoids, bitter threshold concentrations were determined for limonin and C17-epilimonin.
as §1

Series [3] in a line: Incubation of limonin in aqueous solution, formation of isolimonin. Format: physicochemical. The conditions noted are these: pH of 3.
A short description of series [4]: Non-enzymatic release of limonin from limonin-17-β-D-glucopyranoside in aqueous solution on storage (HPLC-MS/MS). It counts as physicochemical. The following applies: for limonin released from the glucopyranoside: up to 14 weeks in the dark; for limonin released from its precursor (yield): 14 weeks in the dark. The method, then:
To investigate the putative non-enzymatic release of limonin from limonin-17-β-D-glucopyranoside during storage of orange juice, aqueous solutions of the glucopyranoside adjusted to the pH value of a freshly squeezed orange juice (pH 3.5) or to the range of pH values found for orange juice concentrates (pH 2.0 and 3.0) were held at 20° C. for up to 14 weeks in the dark. At regular time intervals, aliquots were withdrawn from the model solutions and analyzed for the amount of limonin liberated from the glucopyranoside by means of HPLC-MS/MS operating in the MRM mode. […] For example, 0.85% mol of limonin was released from the glucopyranoside when maintained at pH 2.0, whereas at pH 3.5 only 0.25% of the bitter compound was generated.
In order to investigate the influence of the temperature on limonin generation, aqueous solutions of the glucopyranoside adjusted to pH 3.0 were maintained at 4, 20, and 30° C. for up to 14 weeks in the dark. At regular time intervals, the amounts of limonin were determined by means of HPLC-MS/MS operating in the MRM mode. […] For example, limonin was released from its precursor in a yield of nearly 4.0% when incubated at 30° C., whereas only 0.2% of the bitter compound was detectable after storing the precursor solution at 4° C. for 14 weeks.
In particular, aqueous solutions of limonin-17-β-D-glucopyranoside (0.35 mg/L) adjusted to pH value of 2.0, 3.0, and 3.5, respectively, by adding trace amounts of hydrochloric acid (1 mol/L) were maintained at different temperatures (4, 20, 30° C.) for up to 14 weeks in closed vials in the dark. At regular time intervals, samples (5 μL) were withdrawn with a syringe and were analyzed for the generation of limonin by means of LC-MS/MS on a Synergi Fusion, 150×2 mm i.d., 4 μm column (Phenomenex). To achieve this, chromatography was performed with a flow rate of 250 μL/min starting with a mixture (80/20, v/v) of 0.1% aqueous formic acid and acetonitrile, increasing the acetonitrile content to 40% within 10 min, then to 80% within 5 min, held for 5 min, and, finally, to 100% within 5 min. Using negative electrospray ionization, limonin was analyzed in the multiple reaction monitoring (MRM) mode using the mass transition m/z 469→229. Quantitative analysis was performed by comparing the peak areas obtained for the mass trace with those of defined standard solutions of limonin in methanol.

Where [5] appears, read: Homo sapiens; read-out: Astringency Taste Threshold.
[6] abbreviates: Homo sapiens; read-out: Bitter Taste Threshold.

For the compound “5,6,7,3′,4′-pentamethoxyflavoneglucoside”, the “Astringency Taste Threshold” value in series [1] (in vivo) worked out at 21 µmol/L. In addition, the “Bitter Taste Threshold” value in series [2] (in vivo) worked out at 61 µmol/L.
On the same counts, the results for “5,6,7,8,3′,4′-hexamethoxyflavoneglucoside” are 20 µmol/L and 78 µmol/L.
In the case of `COc1ccc(-c2oc3cc(OC)c(OC)c(OC)c3c(=O)c2OC)cc1OC` [3,5,6,7,3′,4′-hexamethoxyflavone], the figures for the minimal effective concentration in series [1] (setting [5]) and in series [2] (setting [6]) were 9 µM and 19 µM, respectively.
For `COc1ccc(-c2oc3c(OC)c(OC)c(OC)c(OC)c3c(=O)c2OC)cc1OC` [3,5,6,7,8,3′,4′-heptamethoxyflavone], in that order: 4 to 5 µM and 24 to 31 µM.
As to `COc1ccc(-c2oc3c(OC)c(OC)cc(OC)c3c(=O)c2OC)cc1OC` [3,5,7,8,3′,4′-hexamethoxyflavone], the minimal effective concentration in series [1] (setting [5]) was 125 µM; in series [2] (setting [6]) it was over 250 µM.
For `COc1cc(-c2cc(=O)c3c(OC)c(OC)c(OC)c(OC)c3o2)ccc1O` [4′-hydroxy-3′,5,6,7,8-pentamethoxyflavone], in that order: 6 µM and 25 µM.
Consider `COc1ccc(-c2oc3cc(OC)c(OC)c(OC)c3c(=O)c2O[C@@H]2O[C@H](CO)[C@@H](O)[C@H](O)[C@H]2O)cc1OC` [5,6,7,3′,4′-pentamethoxy-flavone-3-O-β-D-glucopyranoside], for which the “Astringency Taste Threshold” value in series [1] (in vivo) stood at 21 µmol/L. The “Bitter Taste Threshold” value in series [2] (in vivo) was 61 µmol/L.
Take `COc1ccc(-c2cc(=O)c3c(OC)c(OC)c(OC)cc3o2)cc1OC` [5,6,7,3′,4′-pentamethoxyflavone]: the values for the minimal effective concentration in series [1] (setting [5]) and in series [2] (setting [6]) were 24 µM and 56 µM, respectively.
Consider `COc1ccc(-c2cc(=O)c3c(OC)c(OC)c(OC)cc3o2)cc1` [5,6,7,4′-tetramethoxyflavone], for which, in series [1] (Homo sapiens, read-out: Astringency Taste Threshold), the minimal effective concentration worked out at 31 µM.
For `COc1ccc(-c2oc3c(OC)c(OC)c(OC)c(OC)c3c(=O)c2O[C@@H]2O[C@H](CO)[C@@H](O)[C@H](O)[C@H]2O)cc1OC` [5,6,7,8,3′,4′-Hexamethoxyflavone-3-O-β-D-glucopyranoside], the “Astringency Taste Threshold” value in series [1] (in vivo) turned out to be 20 µmol/L. Also, the “Bitter Taste Threshold” value in series [2] (in vivo) stood at 78 µmol/L.
For `COc1ccc(-c2cc(=O)c3c(OC)c(OC)c(OC)c(OC)c3o2)cc1OC` [5,6,7,8,3′,4′-hexamethoxyflavone], the minimal effective concentration was determined as 51 µM in series [1] (setting [5]) and 103 µM in series [2] (setting [6]).
On the same counts, the results for `COc1ccc(-c2cc(=O)c3c(OC)c(OC)c(OC)c(OC)c3o2)cc1` [5,6,7,8,4′-pentamethoxyflavone] are 19 µM and 93 µM.
Take `COc1ccc(-c2cc(=O)c3c(OC)cc(OC)c(OC)c3o2)cc1OC` [5,7,8,3′,4′-pentamethoxyflavone]: the minimal effective concentration in series [1] (setting [5]) worked out at 13 µM; in series [2] (setting [6]), 32 µM.
For `COc1ccc(-c2cc(=O)c3c(OC)cc(OC)c(OC)c3o2)cc1` [5,7,8,4′-tetramethoxyflavone], in that order: 44 µM and over 120 µM.
On the same counts, the results for `COc1ccc2c(=O)cc(-c3ccc(OC)c(OC)c3)oc2c1` [7,3′,4′-trimethoxyflavone] are 15 µM and over 400 µM.
For `COc1ccc(-c2cc(=O)c3ccc(OC)c(OC)c3o2)cc1OC` [7,8,3′,4′-tetramethoxyflavone], in that order: 44 µM and over 400 µM.
On to `CC1(C)OC(=O)C[C@H](O)[C@]2(C)[C@H]3CC[C@@]4(C)[C@H](c5ccoc5)OC(=O)[C@H]5O[C@]54[C@]3(C)C(=O)C[C@@H]12` [Deacetylnomilin], for which the “Astringency Taste Threshold” value in series [1] (in vivo) was determined as 13.2 µmol/L. Also, the “Bitter Taste Threshold” value in series [2] (in vivo) is over 106 µmol/L.
On to `CC1(C)O[C@H]2CC(=O)OC[C@]23[C@H]2CC[C@@]4(C)[C@H](c5ccoc5)OC(=O)[C@H]5O[C@]54[C@]2(C)C(=O)C[C@@H]13` [Limonin, reference compound], for which, in series [3], the “formation of isolimonin on incubation (direct epimerization)” value was “does not produce significant quantity of isolimonin”. For the same compound, the minimal effective concentration in series [1] (setting [5]) and in series [2] (setting [6]) was 4 µM throughout. This compound also came in with a bitter threshold concentration in series [2] (bottled water pH 5.1, three-alternative forced-choice, eleven assessors) of 4.0 µmol/L. In addition, the “times more bitter than caffeine” value in series [2] (relative to caffeine) is recorded as about 200 times. Further, in series [2] (relative to catechin), the “times more bitter than catechin” value is 150 times.
Take `CC1(C)O[C@H]2CC(=O)OC[C@]23[C@H]2CC[C@@](C)([C@@H](O[C@@H]4O[C@H](CO)[C@@H](O)[C@H](O)[C@H]4O)c4ccoc4)[C@@]4(O[C@@H]4C(=O)O)[C@]2(C)C(=O)C[C@@H]13` [Limonin-17-β-D-glucopyranoside]: the “Astringency Taste Threshold” value in series [1] (in vivo) was 17 µmol/L. Also, the “Bitter Taste Threshold” value in series [2] (in vivo) came to 106 µmol/L. The “limonin released from the glucopyranoside” value in series [4] (pH 2.0, 20° C.) was found to be 0.85 % mol; in series [4] (pH 3.5, 20° C.), 0.25%. Further, the “limonin released from its precursor (yield)” value in series [4] (pH 3.0, 4° C.) is given as 0.2%; in series [4] (pH 3.0, 30° C.) it was about 4.0%.
Take `CC(=O)O[C@H]1CC(=O)OC(C)(C)[C@@H]2CC(=O)[C@]3(C)[C@H](CC[C@@]4(C)[C@H](c5ccoc5)OC(=O)[C@H]5O[C@]543)[C@@]12C` [Nomilin]: the minimal effective concentration in series [2] (Homo sapiens, read-out: Bitter Taste Threshold) turned out to be 13 µM. In series [2] (relative to caffeine), the “times more bitter than caffeine” value is on record as about 150 times. The “times more bitter than catechin” value in series [2] (relative to catechin) is reported as 45 times.
As to C17-epilimonin [Isolimonin], in series [1], the “Astringency Taste Threshold” value is given as 10 mg/L. The compound also displayed a bitter threshold concentration in series [2] (water; bottled water pH 5.1, three-alternative forced-choice, eleven assessors) of 10.0 µg/L.
Take “Deacetylnomilinic acid-17-β-D-glucopyranoside”: the “Astringency Taste Threshold” value in series [1] (in vivo) came out at 27 µmol/L. Besides, the “Bitter Taste Threshold” value in series [2] (in vivo) stood at 68 µmol/L.
For “Epiisoobacunoic acid 17-β-D-glucopyranoside”, in that order: 16 µmol/L and 42 µmol/L.
Take Nomilin acid β-glpc: in series [2] (in vivo), the “Bitter Taste Threshold” value is over 800 µmol/L.
On to Nomilin β-glpc, for which the “Bitter Taste Threshold” value in series [2] (in vivo) is over 700 µmol/L.
The same measure, in the same setting: the figure for Obacunon β-glpc is 49 µmol/L.
